Counter-ions that a name gives are not always drawn.

Holding throughout (format): physicochemical
Data set [1] is described as follows: Stability competition test (competitive slurry, XRPD). The conditions noted are these: for Stability Competition Test: crystalline form after competitive slurry (XRPD): equal quantities of both forms slurried 7 days in ethanol or water; for Stability competition test: crystalline form after slurry: slurried in water or ethanol. The method, then: Stability competition test: An equal quantity (250 mg) of the crystalline vortioxetine hemihydrobromide form of the present invention prepared in example 4 and the β Form of vortioxetine hydrobromide prepared in preparation example 2 were respectively added to 3 mL of ethanol or water to produce suspensions. No solvate was formed in ethanol or water. The suspensions were slurried for 7 days at room temperature or at 60° C., and then XRPD characterization analyses were performed.

The nature of data set [2]: Hygroscopicity comparison (DVS isothermal sorption). The following applies: relative humidity range 20%-80%. The method, then: Dynamic vapor sorption (DVS) data were collected using TA Instruments Q5000 TGA. The instrument control software was Thermal Advantage, and the analytical software was Universal Analysis. Usually, 1-10 mg of the sample was placed in a platinum pan and the weight change of the sample during experiments was recorded. The relative humidity was usually programmed to change from 20% to 80% and then back to 20%, and an isothermal sorption curve could be generated. Depending on specific situations, different sorption and desorption procedures might be used.
Hygroscopicity comparison: DVS isothermal sorption curves were used, and weight changes within the 20%-80% RH range were measured.

The nature of data set [3]: Dissolution of tablets (paddle method, water), Example 140. The following applies: 37° C. The method, then:
The crystalline form of vortioxetine hemihydrobromide of the present invention, the β Form of vortioxetine hydrobromide prepared in preparation example 2 and the β Form of vortioxetine hydrobromide containing 20% of the crystalline form of vortioxetine hemihydrobromide of the present invention were tableted by the method in example 105 and then subjected to phase stability comparison. Dissolution was determined by reference to the dissolution conditions of Benorilate Tablets described in 2010 Chinese Pharmacopoeia. The paddle method was used with the paddle rotation speed at 50 r/min. 900 mL of water was the dissolution medium. The temperature was 37° C. Take 3 mL of the dissolution medium for sampling at 2, 10, 20, 40 and 60 min respectively. Each time after sampling, 3 mL of water was added back to dissolution medium to supplement the volume. The concentration of the dissolution medium at each time point was measured by HPLC, and the dissolution profile was plotted.

Data set [4] can be described thus: Dissolution comparison of sustained-release tablets, Example 144. The following applies: water, 37° C. The method, then: The crystalline form of vortioxetine hemihydrobromide of the present invention and the β Form of vortioxetine hydrobromide prepared in preparation example 2 were tableted by the method of example 141 and then subjected to dissolution comparison. Water was used as the dissolution medium. Parameter setting of the dissolution tester: The temperature was 37° C. The rotate speed of the stirring paddle was 50 r/min. Take 3 ml of the dissolution medium out at 0.5, 1, 2, 6 and 12 hours respectively. Each time after sampling, 3 mL of water was added back to the dissolution medium to supplement the volume. The concentration of the dissolution medium at each time point was determined by HPLC.

The nature of data set [5]: Inventors' studies of the known crystalline forms of vortioxetine hydrobromide of WO2007/144005A1. An excerpt:
In studies, the inventors of the present invention found out that the multiple crystalline forms of vortioxetine hydrobromide disclosed in WO2007/144005A1 have the following disadvantages: […]

The mark [6] stands for this setting: high-temperature conditions, hydrobromide.

With `Cc1ccc(Sc2ccccc2N2CCNCC2)c(C)c1` [vortioxetine hemihydrobromide], the “Stability Competition Test: crystalline form after competitive slurry (XRPD)” value in data set [1] (60° C., listed as the vortioxetine hemihydrobromide crystalline form of the present invention, hemihydrobromide) is given as “kept unchanged”; in data set [1] (room temperature, listed as the vortioxetine hemihydrobromide crystalline form of the present invention, hemihydrobromide), “invention kept unchanged””. Further, the “Stability competition test: crystalline form after slurry” value in data set [1] (temperature not stated, hemihydrobromide) is reported as “keeping its crystalline form unchanged”. In addition, the “Hygroscopicity Comparison (weight change)” value turned out to be 0.28% in data set [2] (listed as Example 4, hemihydrobromide) and 0.28% in data set [2] (listed as the vortioxetine hemihydrobromide crystalline form of the present invention, hemihydrobromide). Moreover, the Cumulative dissolution in data set [3] (tablets by method of example 105, 900 mL water, paddle 50 r/min, 2 min, hemihydrobromide) is listed as 8.2%; in data set [3] (tablets, water, 60 min) it was 100.0%; in data set [4] (sustained-release tablets by method of example 141, paddle 50 r/min, 0.5 hours, hemihydrobromide) it was 8.1%.

As for `Cc1ccc(Sc2ccccc2N2CCNCC2)c(C)c1` [ethyl acetate solvate of vortioxetine hydrobromide], the “Stability of the crystalline form” value in data set [5] (high-humidity conditions) is “transformed to hydrate”; in data set [5] (setting [6]), “lost ethyl acetate”.

On to `Cc1ccc(Sc2ccccc2N2CCNCC2)c(C)c1` [α Form of vortioxetine hydrobromide, vortioxetine hydrobromide], for which, in data set [5] (room temperature), the “Stability of the crystalline form” value is “transformed to the β Form of vortioxetine hydrobromide”.

Consider `Cc1ccc(Sc2ccccc2N2CCNCC2)c(C)c1` [hydrate of vortioxetine hydrobromide, vortioxetine hydrobromide], for which, in data set [5] (setting [6]), the “Stability of the crystalline form” value was “lost water”.

In the case of `Cc1ccc(Sc2ccccc2N2CCNCC2)c(C)c1` [the β Form of vortioxetine hydrobromide, 1-[2-(2,4-dimethylphenylsulfanyl)phenyl]piperazine hydrobromide], the “Stability Competition Test: crystalline form after competitive slurry (XRPD)” value in data set [1] (60° C., listed as the known β Form of vortioxetine hydrobromide, hydrobromide) was “completely transformed into the vortioxetine hemihydrobromide crystalline form of the present invention”; in data set [1] (room temperature, listed as the known β Form of vortioxetine hydrobromide, hydrobromide), “completely transformed into the vortioxetine hemihydrobromide crystalline form of the present invention”. For the same molecule, the “Stability competition test: crystalline form after slurry” value was “transformed to the vortioxetine hemihydrobromide crystalline form of the present invention” in data set [1] (temperature not stated at the place, hydrobromide); “failed to maintain its original crystalline form” in data set [1] (temperature not stated at the place, listed as β Form of vortioxetine hydrobromide, hydrobromide); “completely transformed to the crystalline vortioxetine hemihydrobromide of the present invention” in data set [1] (temperature not stated, listed as the known β Form of vortioxetine hydrobromide, hydrobromide). Further, the “Hygroscopicity Comparison (weight change)” value in data set [2] (listed as the known β Form of vortioxetine hydrobromide, hydrobromide) was found to be 0.60%. In addition, the Cumulative dissolution in data set [4] (sustained-release tablets by method of example 141, paddle 50 r/min, 0.5 hours, hydrobromide) was found to be 50.0%; in data set [4] (sustained-release tablets, 12 hours, hydrobromide), 100.0%.

For the origin of these results see patent US9562024B2, “Vortioxetine salt and crystal thereof, their preparation method, pharmaceutical compositions and usage” (HANGZHOU PUSHAI PHARMACEUTICAL TECHNOLOGY CO., LTD, priority 2013, dated 2017).
